Source: ChEMBL document CHEMBL1201862, “PubChem BioAssay data set” (2004)
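Assay format: 96-well plates, 48-hour exposure. GI50 marks 50% less growth.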 Calls of active or inactive are those of the source. Rule as the data show it: active = GI50 up to about 1.1 µM and inactive = higher.

Columns and labels:
Assay in all cases: NCI tumour cell line growth inhibition, 48 h
A498 = system: A498
ACHN = system: ACHN
BT-549 = system: BT-549
COLO 205 = system: COLO 205
HL-60 = system: HL-60
HOP-92 = system: HOP-92
Hs-578T = system: Hs-578T
KM12 = system: KM12
MDA-MB-231 = system: MDA-MB-231
MOLT-4 = system: MOLT-4
NCI-H226 = system: NCI-H226
NCI/ADR-RES = system: NCI/ADR-RES
OVCAR-4 = system: OVCAR-4
OVCAR-5 = system: OVCAR-5
SK-MEL-28 = system: SK-MEL-28
SN12C = system: SN12C
SNB-19 = system: SNB-19
SNB-75 = system: SNB-75
SW-620 = system: SW-620
U-251 = system: U-251

Structure (SMILES): CN(C)CCSS(=O)(=O)O
- GI50 (A498): > 100 µM (inactive)
- GI50 (ACHN): > 100 µM (inactive)
- GI50 (BT-549): > 100 µM (inactive)
- GI50 (COLO 205): > 100 µM (inactive)
- GI50 (HL-60): > 100 µM (inactive)
- GI50 (HOP-92): > 100 µM (inactive)
- GI50 (Hs-578T): > 100 µM (inactive)
- GI50 (KM12): > 100 µM (inactive)
- GI50 (MDA-MB-231): > 100 µM (inactive)
- GI50 (MOLT-4): > 100 µM (inactive)
- GI50 (NCI-H226): > 100 µM (inactive)
- GI50 (NCI/ADR-RES): > 100 µM (inactive)
- GI50 (OVCAR-4): > 100 µM (inactive)
- GI50 (OVCAR-5): > 100 µM (inactive)
- GI50 (SK-MEL-28): > 100 µM (inactive)
- GI50 (SN12C): > 100 µM (inactive)
- GI50 (SNB-19): > 100 µM (inactive)
- GI50 (SNB-75): < 0.01 µM (active)
- GI50 (SW-620): > 100 µM (inactive)
- GI50 (U-251): 30.2 µM (inactive)

Structure (SMILES): Cc1occc1C(=S)Nc1ccc(Cl)c(C(=O)OCC(C)C)c1
- GI50 (A498): 15.9 µM (inactive)
- GI50 (ACHN): 17.9 µM (inactive)
- GI50 (BT-549): 17.2 µM (inactive)
- GI50 (COLO 205): 16.3 µM (inactive)
- GI50 (HL-60): 29.4 µM (inactive)
- GI50 (HOP-92): 17.4 µM (inactive)
- GI50 (Hs-578T): 25.1 µM (inactive)
- GI50 (KM12): 14.4 µM (inactive)
- GI50 (MDA-MB-231): 16.6 µM (inactive)
- GI50 (MOLT-4): 11.5 µM (inactive)
- GI50 (NCI-H226): 15.3 µM (inactive)
- GI50 (NCI/ADR-RES): 12.9 µM (inactive)
- GI50 (OVCAR-4): 13.3 µM (inactive)
- GI50 (OVCAR-5): 31.8 µM (inactive)
- GI50 (SK-MEL-28): 16.3 µM (inactive)
- GI50 (SN12C): 16.8 µM (inactive)
- GI50 (SNB-19): 17.1 µM (inactive)
- GI50 (SNB-75): 15.3 µM (inactive)
- GI50 (SW-620): 19.2 µM (inactive)
- GI50 (U-251): 17.6 µM (inactive)

Structure (SMILES): CC1=CC(C)C/C=C/C2C3OC3(C)C(C)C3C(Cc4c[nH]c5ccccc45)NC(=O)C23C(=O)C=CC(=O)C1O (stereo not given)
- GI50 (A498): 0.213 µM (active)
- GI50 (ACHN): 1.35 µM (inactive)
- GI50 (BT-549): 4.56 µM (inactive)
- GI50 (COLO 205): 0.354 µM (active)
- GI50 (HL-60): 1.61 µM (inactive)
- GI50 (HOP-92): 0.9 µM (active)
- GI50 (Hs-578T): 3.72 µM (inactive)
- GI50 (KM12): 15.2 µM (inactive)
- GI50 (MDA-MB-231): 4.67 µM (inactive)
- GI50 (MOLT-4): 2.01 µM (inactive)
- GI50 (NCI-H226): 12.9 µM (inactive)
- GI50 (NCI/ADR-RES): 24.3 µM (inactive)
- GI50 (OVCAR-4): 11.8 µM (inactive)
- GI50 (OVCAR-5): 12.5 µM (inactive)
- GI50 (SK-MEL-28): 14.7 µM (inactive)
- GI50 (SN12C): 8.77 µM (inactive)
- GI50 (SNB-19): 11 µM (inactive)
- GI50 (SNB-75): 0.728 µM (active)
- GI50 (SW-620): 2.02 µM (inactive)
- GI50 (U-251): 16.4 µM (inactive)
